These results are taken from patent US20250092067A1, “APT1 and APT2 Inhibitors and Uses Thereof” (Cornell University, priority 2021, published 2025).

“And” between values parts separate entries of the source, which are not always exact repeats. Identical values can stand only once. Like-named read-outs stand apart in the source and are kept apart here.

Data set [1] addresses T1, APT1 (Homo sapiens, UniProt O75608).
T1 construct: made in house; host or cells: E. coli BL21 (DE3)
In words: APT1 enzymatic assay, resorufin acetate as fluorogenic substrate. It counts as biochemical.

In data set [2] the target is T2, APT2 (Homo sapiens, UniProt O95372). In words: APT2 enzymatic assay, resorufin acetate as fluorogenic substrate. It is filed as biochemical. The arrangement: made in house; host or cells: E. coli BL21 (DE3).
T2 sequence (O95372 whole entry): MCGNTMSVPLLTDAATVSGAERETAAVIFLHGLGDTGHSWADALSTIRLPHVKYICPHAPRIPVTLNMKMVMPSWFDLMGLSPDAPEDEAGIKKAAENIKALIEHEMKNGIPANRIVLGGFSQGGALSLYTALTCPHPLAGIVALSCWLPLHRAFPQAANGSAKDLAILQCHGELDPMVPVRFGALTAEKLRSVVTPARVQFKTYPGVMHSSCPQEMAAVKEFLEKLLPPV
The target in data set [3] is T1, APT1. In words: Competitive in vitro ABPP with TAMRA-FP, cell lysate spiked with APT1. It counts as binding. As to conditions: qualitative, FIG. 6C.
Data set [4] concerns off target proteins. In words: TAMRA-FP ABPP in APT2 spiked cell lysate, other bands (off targets). It is filed as binding. As to conditions: FIG. 8.
The subject of data set [5] is STAT3 palmitoylation. Kind of data set: STAT3 palmitoylation in HEK 293T cells expressing STAT3 and DHHC7 (endogenous APT2). It counts as cell-based. As to conditions: 16-hour treatment; for palmitoylation signal of STAT3: 50 μM.
The test system of data set [6] is DSS induced colitis. In words: Dextran sodium sulfate (DSS) induced colitis model. It is filed as in vivo, mice. As to conditions: for lengths of the colons compared to the control groups / colon length longer than the control group / colon length difference to control: 50 mg/kg intraperitoneal; for lengths of the colons compared to the control groups: 2.5% DSS, all groups; for body weight loss / colon length longer than the control group: female mice; for difference in body weight / colon length difference to control: male mice.

For data set [7] the following is noted: 50 mg/kg daily injection.
The target of data set [8] is T2, APT2. Kind of data set: Competitive in vitro ABPP with TAMRA-FP, cell lysate spiked with APT2. It is filed as binding. Further details: made in house; host or cells: E. coli BL21 (DE3). As to conditions: for inhibition at 90 µM: inhibitor at 90 μM.
The target of data set [9] is T2, APT2. In words: Gel filtration assay to identify covalent inhibitors (TAMRA-FP labeling). It is filed as biochemical. The arrangement: expressed in transfected cells; host or cells: HEK 293T.
Data set [10] concerns SMAD2 palmitoylation. In words: SMAD2 palmitoylation in HEK 293T cells (Alk14 labeling, in-gel fluorescence). It is filed as cell-based. As to conditions: inhibitors at 25 μM, 6 h.
Data set [11] relates to STAT3 palmitoylation. In words: STAT3 palmitoylation in HEK 293T cells transfected with STAT3, APT2 and DHHC7. It is filed as cell-based. As to conditions: inhibitors at 25 μM for 16 hours.
The subject of data set [12] is HEK 293T cells. Kind of data set: Cell viability of HEK 293T cells. As to conditions: at 50 mM (so in the source).
Where [13] appears, read: Table 1, resorufin acetate as the substrate, read-out: IC50 (μM) APT1.
Setting [14] is: Table 2, class symbols, read-out: IC50 (μM) APT1.
Setting [15] is: Table 1, resorufin acetate as the substrate, read-out: IC50 (μM) APT2.
[16] abbreviates: Table 2, class symbols, read-out: IC50 (μM) APT2.
Where [17] appears, read: Example 3 (FIG. 4), 15 min pre-incubation, read-out: IC50 APT2.
Setting [18] is: read-out: inhibition of TAMRA-FP fluorescent labeling of APT2.
Where [19] appears, read: Example 3 (FIG. 4), 15 min pre-incubation.

T1 sequence (O75608 whole entry): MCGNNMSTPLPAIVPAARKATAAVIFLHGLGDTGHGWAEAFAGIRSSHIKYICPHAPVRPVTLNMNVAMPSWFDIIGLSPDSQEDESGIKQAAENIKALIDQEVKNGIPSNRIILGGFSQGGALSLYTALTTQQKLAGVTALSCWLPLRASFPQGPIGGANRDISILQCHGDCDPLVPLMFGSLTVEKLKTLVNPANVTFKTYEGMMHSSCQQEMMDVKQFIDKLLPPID

On to `CCCOc1ccc(N2CCN(C(=O)c3cc4c(s3)-c3ccccc3S(=O)(=O)C4)CC2)cc1` [APT-MY1], for which the IC50 is above 200 µM in data set [1] (setting [13]), above 40 µM in [1] (setting [14]), 0.836 µM in data set [2] (setting [15]) and 0.1 to 1 µM in data set [2] (setting [16]).

Turning to `CCCCCCOc1ccc(N2CCN(C(=O)c3cc4c(s3)-c3ccccc3S(=O)(=O)C4)CC2)cc1` [APT-MY2], the IC50 is above 200 µM in data set [1] (setting [13]), above 40 µM in data set [1] (setting [14]), 2.03 µM in data set [2] (setting [15]) and 1 to 40 µM in data set [2] (setting [16]).

Consider `CCCNC(=O)c1cc2c(s1)-c1ccccc1S(=O)(=O)C2` [APT-MY3, N-Propyl-4H-thieno[3,2-c]thiochromene-2-carboxamide 5,5-dioxide], for which the IC50 in data set [1] (setting [13]) is above 200 µM; in data set [1] (setting [14]) it was above 40 µM; in data set [2] (setting [15]) it was above 200 µM; in data set [2] (setting [16]) it was above 40 µM.

As for `CCCCCCN1CCN(C(=O)c2cc3c(s2)-c2ccccc2S(=O)(=O)C3)CC1` [APT-MY4, (5,5-dioxido-4H-thieno[3,2-c]thiochromen-2-yl) (4-hexylpiperazin-1-yl) methanone], the IC50 in data set [1] (setting [13]) was above 200 µM; in data set [1] (setting [14]), above 40 µM; in [2] (setting [15]) it was 3.99 µM; in data set [2] (setting [16]), 1 to 40 µM.

As for `Cc1ccc(NC(=O)c2cc3c(s2)-c2ccccc2S(=O)(=O)C3)cc1` [APT-MY5, N-(p-tolyl)-4H-thieno[3,2-c]thiochromene-2-carboxamide 5,5-dioxide], the IC50 was above 200 µM in data set [1] (setting [13]), above 40 µM in data set [1] (setting [14]), above 200 µM in [2] (setting [15]) and above 40 µM in [2] (setting [16]).

As for `CCCCCCCCc1ccc(NC(=O)c2cc3c(s2)-c2ccccc2S(=O)(=O)C3)cc1` [APT-MY6, N-(4-octylphenyl)-4H-thieno[3,2-c]thiochromene-2-carboxamide 5,5-dioxide], the 50% inhibitory concentration (IC50) in data set [1] (setting [13]) is above 200 µM; in data set [1] (setting [14]), above 40 µM; in data set [2] (setting [15]) it was above 200 µM; in data set [2] (setting [16]) it was above 40 µM.

As for `CCCCCCCCNC(=O)c1cc2c(s1)-c1ccccc1S(=O)(=O)C2` [APT-MY7, N-octyl-4H-thieno[3,2-c]thiochromene-2-carboxamide 5,5-dioxide], the concentration for half-maximal inhibition (IC50) in [1] (setting [13]) was above 200 µM; in data set [1] (setting [14]), above 40 µM; in data set [2] (setting [15]), above 200 µM; in [2] (setting [16]) it was above 40 µM.

With `COc1ccc(N2CCN(C(=O)c3cc4c(s3)-c3ccccc3[S+]([O-])C4)CC2)cc1` (centres unmarked) [APT-MY8], the half-maximal inhibitory concentration (IC50) in data set [1] (setting [13]) is above 200 µM; in [1] (setting [14]) it was above 40 µM.

Regarding `COc1ccc(N2CCN(C(=O)c3cc4cc(B(O)O)c5ccccc5c4s3)CC2)cc1` [KW5129, (2-(4-(4-Methoxyphenyl)piperazine-1-carbonyl)naphtho[1,2-b]thiophen-5-yl)boronic acid], in data set [1] (APT1 IC50 versus APT2 IC50), the “APT1 IC50 higher than APT2 IC50” value is listed as “about 5.2 fold”. The IC50 in data set [1] (Example 3 (FIG. 4), 15 min pre-incubation, read-out: IC50 APT1) came out at 0.41 µM. In addition, in data set [3], the “inhibition of APT1 in competitive ABPP” value is “could also inhibit APT1”. The “change of fluorescent intensity in bands other than APT2 (off target reaction)” value in data set [4] is on record as “only seen in the APT2 band”. In data set [5] (25 μM), the “palmitoylated STAT3” value is “significant increase”. In data set [5], the “palmitoylation signal of STAT3” value is on record as “more potent”. In [6], the “lengths of the colons compared to the control groups” value was “significant increase”, the body weight loss result is “less severe”, the “colon length longer than the control group” value turned out to be 1.4 cm and the “difference in body weight” value is “no statistically significant difference”. Also, the “colon length difference to control” value in [6] is on record as around 0.5 cm. In addition, the tolerability in mice entry in data set [7] is “well tolerated”. For the same compound, in data set [2] (setting [17]), the half-inhibitory concentration (IC50) was found to be 0.079 µM. The “more potent at inhibiting APT2 compared with ML349” value in data set [2] (relative to ML349) is around 9 times. Moreover, the inhibition at 90 µM in data set [8] (setting [18]) was around 90%. In addition, in data set [8] (inhibitor at 270 μM), the “inhibition of TAMRA-FP fluorescent labeling of APT2” value is listed as “almost completely abolished”. Further, the “mode of APT2 inhibition (covalent or non-covalent)” value in [9] (from gel filtration assay) is given as “non-covalent inhibitor”. For the same compound, in data set [9] (lysate treated with inhibitor, passed over size exclusion column), the “TAMRA-FP fluorescent labeling of APT2 after gel filtration” value is “almost complete fluorescent labeling after just one gel filtration”.

As to `COc1ccc(N2CCN(C(=O)c3cc4cc(B(O)O)c5ccccc5c4s3)CC2)cc1` [KW05129], the IC50 in [1] (setting [13]) was 0.19 µM; in [1] (setting [14]), 0.1 to 1 µM; in data set [2] (setting [15]) it was 0.079 µM; in data set [2] (setting [16]) it was below 0.1 µM. Besides, the SMAD2 palmitoylation level result in [10] is “slightly better than ML349”. Further, in data set [11], the “STAT3 palmitoylation level (acylation normalized by STAT3 protein)” value was “slightly better than ML349”. The “effect on cell viability” value in data set [12] is on record as “no effect”. For the same compound, in data set [2] (pre-incubation 30 min versus standard), the “time-dependent inhibition of APT2” value was “not observed”. In [2] (relative to ML349), the “APT2 IC50 lower than that of ML349” value came out at 8.54 fold.

On to `COc1ccc(N2CCN(C(=O)c3cc4cc(O)c5ccccc5c4s3)CC2)cc1` [KW5130, (5-Hydroxynaphtho[1,2-b]thiophen-2-yl) (4-(4-methoxyphenyl)piperazin-1-yl) methanone], for which, in data set [2] (setting [17]), the IC50 is around 5 µM.

On to `COc1ccc(N2CCN(C(=O)c3ccc(-c4ccccc4B(O)O)s3)CC2)cc1` [KW5175, (2-(5-(4-(4-methoxyphenyl)piperazine-1-carbonyl)thiophen-2-yl)phenyl)boronic acid], for which the “IC50 APT2” value in [2] (setting [19]) is “much less potent”.

Regarding `COc1ccc(N2CCN(C(=O)c3ccc(-c4ccccc4B(O)O)s3)CC2)cc1` [KW05175], the IC50 was 16.1 µM in data set [2] (setting [15]) and 1 to 40 µM in data set [2] (setting [16]).

`COc1ccc(N2CCN(C(=O)c3cc4cc(S(=O)(=O)F)c5ccccc5c4s3)CC2)cc1` [KW5191, 2-(4-(4-Methoxyphenyl)piperazine-1-carbonyl)naphtho[1,2-b]thiophene-5-sulfonyl fluoride] gave a half-inhibitory concentration (IC50) in data set [2] (IC50 APT2) of 1.8 µM.

Take `COc1ccc(N2CCN(C(=O)c3cc4cc(S(=O)(=O)F)c5ccccc5c4s3)CC2)cc1` [KW05191]: the IC50 in data set [2] (IC50 (μM) APT2) was 1.77 µM and 1 to 40 µM.

Turning to `COc1ccc(N2CCN(C(=O)c3cc(B(O)O)cs3)CC2)cc1` [KW5192, (5-(4-(4-Methoxyphenyl)piperazine-1-carbonyl)thiophen-3-yl)boronic acid], in data set [2] (setting [17]), the half-inhibitory concentration (IC50) turned out to be 1.1 µM.

As to `COc1ccc(N2CCN(C(=O)c3cc(B(O)O)cs3)CC2)cc1` [KW05192], the half-inhibitory concentration (IC50) was 1.06 µM in data set [2] (setting [15]) and 1 to 40 µM in [2] (setting [16]).

As for `O=C(CN1CCN(C(=O)c2ccco2)CC1)Nc1cc(C(F)(F)F)ccc1Cl` [ML348, reference compound], the IC50 in [2] (setting [15]) is above 200 µM; in data set [2] (setting [16]), above 40 µM.

Turning to `COc1ccc(N2CCN(C(=O)c3cc4c(s3)-c3ccccc3S(=O)(=O)C4)CC2)cc1` [ML349, reference compound], in [1] (setting [13]), the IC50 was above 200 µM. In addition, the IC50 in data set [1] (setting [14]) is above 40 µM. Also, the “APT2 selectivity / inhibition of APT1” value in data set [1] (qualitative, FIG. 4) was “selective for APT2”. Further, the “change of fluorescent intensity in bands other than APT2 (off target reaction)” value in data set [4] is on record as “only seen in the APT2 band”. For the same compound, the “STAT3 palmitoylation level (acylation normalized by STAT3 protein)” value in data set [11] is reported as “increase STAT3 palmitoylation levels”. In addition, the “palmitoylation signal of STAT3” value in [5] is given as “slightly increased”. Besides, in data set [6], the “lengths of the colons compared to the control groups” value is listed as “significant increase”, the body weight loss result is given as “less severe”, the “colon length longer than the control group” value amounted to 1.4 cm and the “difference in body weight” value is reported as “no statistically significant difference”. In data set [6], the “colon length difference to control” value was around 0.5 cm. The “effect on cell viability” value in data set [12] is “no effect”. The IC50 in [2] (setting [15]) amounted to 0.675 µM. In addition, the IC50 in data set [2] (setting [16]) lay within 0.1 to 1 µM. Moreover, the inhibition at 90 µM in [8] (setting [18]) is around 70%. Moreover, the inhibition at 270 µM in data set [8] (inhibitor at 270 μM, read-out: inhibition of TAMRA-FP fluorescent labeling of APT2) is around 70%.

As for `CCCOc1ccc(N2CCN(C(=O)c3cc4c(s3)-c3ccccc3S(=O)(=O)C4)CC2)cc1` [MY1, (5,5-Dioxido-4H-thieno[3,2-c]thiochromen-2-yl) (4-(4-propoxyphenyl)piperazin-1-yl) methanone], the “IC50 APT2” value in data set [2] (setting [19]) was “did not improve the potency”.

Take `CCCCCCOc1ccc(N2CCN(C(=O)c3cc4c(s3)-c3ccccc3S(=O)(=O)C4)CC2)cc1` [MY2, (5,5-dioxido-4H-thieno[3,2-c]thiochromen-2-yl) (4-(4-(hexyloxy)phenyl)piperazin-1-yl) methanone]: in data set [2] (setting [19]), the “IC50 APT2” value is on record as “did not improve the potency”.
